Converted amounts (≈) assume the structure as drawn.
What was measured:
[1] = cited from earlier work
[2] = dissolution in aqueous solution by adjusting the pH; format: physicochemical; settings: pH of the aqueous solution adjusted to ~6.6 (6.5-6.7) or less
From the text: The natural pH of tear fluid is 7.4; however, discomfort for the user will not be felt as long as the pH of the administered medication stays in the range of 6.6-7.8 (Sampath Kumar et al., “Recent Challenges and Advances in Ophthalmic Drug Delivery System,” in The Pharma Innovation, Vol. 1, No. 4 (2012)). Others administer eye drops at a pH of 5.5 and find this pH to be optimal.

[3] = cited from earlier work; remark: listed apart in the source

OCCN(CCO)c1nc(N2CCCCC2)c2nc(N(CCO)CCO)nc(N3CCCCC3)c2n1 [Dipyridamole, dipyridamole]
solubility in methanol [1]: very soluble | dissolution in the aqueous solution [2]: fully dissolves | water solubility ([3]; Meylan, W M ET AL. (1996)): 8.17 µg/mL (≈ 16.2 µM) | solubility in water ([3]; water): practically insoluble
